Data on two compounds can be found in patent publication US20240424109A1, “GLUCOSE-[…] CONJUGATES COMPRISING A TETRA-VALENT SUGAR CLUSTER FOR TREATMENT OF DIABETES” (Merck Sharp & Dohme LLC, priority 2021, published 2024).

The term IC50 denotes the concentration that inhibits the measured activity by half. Low readings indicate higher potency, high ones lower potency.

Assay [1] has as its target T1, Human macrophage mannose receptor 1 (MRC1) (Homo sapiens, UniProt P22897).
T1 sequence (P22897 19-1456): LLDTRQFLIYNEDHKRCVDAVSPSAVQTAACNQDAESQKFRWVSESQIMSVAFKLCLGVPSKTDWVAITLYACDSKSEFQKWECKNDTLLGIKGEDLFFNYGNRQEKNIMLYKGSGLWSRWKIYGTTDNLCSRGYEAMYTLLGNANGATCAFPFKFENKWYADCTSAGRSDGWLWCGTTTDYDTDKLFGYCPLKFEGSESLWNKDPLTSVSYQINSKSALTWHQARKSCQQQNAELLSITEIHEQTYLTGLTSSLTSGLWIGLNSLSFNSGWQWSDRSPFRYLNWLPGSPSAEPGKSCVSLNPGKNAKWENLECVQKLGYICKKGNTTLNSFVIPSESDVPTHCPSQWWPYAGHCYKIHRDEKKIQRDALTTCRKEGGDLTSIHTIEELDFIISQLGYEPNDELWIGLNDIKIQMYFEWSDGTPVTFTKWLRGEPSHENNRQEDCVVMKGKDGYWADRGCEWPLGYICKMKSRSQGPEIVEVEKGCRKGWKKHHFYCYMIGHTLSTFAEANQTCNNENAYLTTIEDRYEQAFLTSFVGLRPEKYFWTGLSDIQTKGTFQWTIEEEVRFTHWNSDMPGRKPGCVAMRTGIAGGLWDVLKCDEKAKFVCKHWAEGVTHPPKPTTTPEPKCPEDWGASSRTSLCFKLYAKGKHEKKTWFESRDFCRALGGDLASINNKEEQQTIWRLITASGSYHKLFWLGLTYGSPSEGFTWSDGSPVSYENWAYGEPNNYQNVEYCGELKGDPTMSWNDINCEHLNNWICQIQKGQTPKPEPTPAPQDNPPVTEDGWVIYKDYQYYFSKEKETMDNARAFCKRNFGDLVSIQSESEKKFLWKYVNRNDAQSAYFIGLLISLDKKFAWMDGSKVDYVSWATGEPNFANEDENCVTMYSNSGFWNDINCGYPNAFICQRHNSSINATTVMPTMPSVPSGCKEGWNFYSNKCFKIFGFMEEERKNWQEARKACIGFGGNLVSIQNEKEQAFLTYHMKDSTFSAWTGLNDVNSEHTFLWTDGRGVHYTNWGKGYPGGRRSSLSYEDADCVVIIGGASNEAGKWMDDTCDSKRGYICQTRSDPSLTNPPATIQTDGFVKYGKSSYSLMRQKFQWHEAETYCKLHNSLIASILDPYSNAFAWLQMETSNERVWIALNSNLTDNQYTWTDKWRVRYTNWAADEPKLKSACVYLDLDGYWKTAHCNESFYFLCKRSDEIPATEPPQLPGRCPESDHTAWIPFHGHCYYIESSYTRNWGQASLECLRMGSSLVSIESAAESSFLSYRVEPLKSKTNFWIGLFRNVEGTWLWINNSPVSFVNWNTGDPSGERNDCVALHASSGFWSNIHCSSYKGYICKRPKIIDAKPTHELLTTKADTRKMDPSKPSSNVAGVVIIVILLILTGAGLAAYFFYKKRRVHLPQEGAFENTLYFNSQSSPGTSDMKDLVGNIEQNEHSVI
The assay is described as follows: Human macrophage mannose receptor 1 (MRC1) competition binding assay. To be noted: competition against Eu-labeled mannosylated-BSA. The method, then: The competition binding assay for MRC1 utilized a ligand, mannosylated-BSA labeled with the DELFIA Eu-N1-ITC reagent (labeling kit for europium labeling of proteins and polypetides for use in dissociation-enhanced time-resolved fluorometric assay), as reported in the literature. Assay was performed either in a 96-well plate with 100 μL well volume (Method E) or in a 384-well plate with 25 μL well volume (Method F). […] The antibody was incubated in the plate for 1 h at rt with shaking. The plate was washed with wash buffer 3-5 times followed by addition of MRC1 (2 ng/μl final concentration) in PBS containing 1% stabilizer BSA. The plate was incubated at rt with gentle shaking for 1 h. The plate was washed three times with wash buffer. […]
(§1) The in vitro biological activities towards insulin receptor (IR) were measured by either ligand competition assays or functional phosphorylation assays, as described above, labeled as following: Method A: IR phosphorylation assay based on 96-well; Method B: IR phosphorylation assay based on 384-well with automated liquid dispense; Method C: cell-based IR binding assay; Method D: SPA IR binding assay method E; Method E: MRC1 assay was performed in a 96-well plate; Method F: MRC1 assay was performed in a 384-well plate.

Assay [2] addresses T2, human insulin receptor type B (IR(B)) (Homo sapiens, UniProt P06213).
T2 construct: expressed in transfected cells; host or cells: CHO cells (G418 selection)
The assay is described as follows: Insulin receptor competition binding assay (125[I]-insulin; whole cell or SPA). The method, then:
Method D: IR binding assay was run in a scintillation proximity assay (SPA) in 384-well format using cell membranes prepared from CHO cells overexpressing human IR(B) grown in F12 media containing 10% FBS and antibiotics (G418, Penicillin/[…]).
as §1

T2 sequence (P06213 28-758 limits assumed): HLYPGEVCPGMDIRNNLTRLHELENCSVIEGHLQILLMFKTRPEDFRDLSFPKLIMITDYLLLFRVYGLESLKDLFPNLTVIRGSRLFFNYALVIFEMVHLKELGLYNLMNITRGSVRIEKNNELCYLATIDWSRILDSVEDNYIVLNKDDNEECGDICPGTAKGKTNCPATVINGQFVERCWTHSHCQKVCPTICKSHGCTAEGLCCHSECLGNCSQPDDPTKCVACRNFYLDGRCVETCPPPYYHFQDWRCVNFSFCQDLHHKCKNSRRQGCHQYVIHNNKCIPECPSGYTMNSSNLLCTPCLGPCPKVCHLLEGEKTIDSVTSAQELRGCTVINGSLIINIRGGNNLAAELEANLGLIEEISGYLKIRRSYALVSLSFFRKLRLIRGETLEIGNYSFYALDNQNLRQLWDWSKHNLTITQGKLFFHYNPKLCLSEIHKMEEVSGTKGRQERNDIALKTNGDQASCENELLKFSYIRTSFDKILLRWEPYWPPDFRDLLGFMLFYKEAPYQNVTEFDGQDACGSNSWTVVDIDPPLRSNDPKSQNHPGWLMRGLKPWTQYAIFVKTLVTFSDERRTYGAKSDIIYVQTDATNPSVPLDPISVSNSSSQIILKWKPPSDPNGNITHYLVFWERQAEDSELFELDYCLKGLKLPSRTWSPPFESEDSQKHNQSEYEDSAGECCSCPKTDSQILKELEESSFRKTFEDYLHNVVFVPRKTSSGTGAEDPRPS
T2 sequence (P06213 763-1382 limits assumed): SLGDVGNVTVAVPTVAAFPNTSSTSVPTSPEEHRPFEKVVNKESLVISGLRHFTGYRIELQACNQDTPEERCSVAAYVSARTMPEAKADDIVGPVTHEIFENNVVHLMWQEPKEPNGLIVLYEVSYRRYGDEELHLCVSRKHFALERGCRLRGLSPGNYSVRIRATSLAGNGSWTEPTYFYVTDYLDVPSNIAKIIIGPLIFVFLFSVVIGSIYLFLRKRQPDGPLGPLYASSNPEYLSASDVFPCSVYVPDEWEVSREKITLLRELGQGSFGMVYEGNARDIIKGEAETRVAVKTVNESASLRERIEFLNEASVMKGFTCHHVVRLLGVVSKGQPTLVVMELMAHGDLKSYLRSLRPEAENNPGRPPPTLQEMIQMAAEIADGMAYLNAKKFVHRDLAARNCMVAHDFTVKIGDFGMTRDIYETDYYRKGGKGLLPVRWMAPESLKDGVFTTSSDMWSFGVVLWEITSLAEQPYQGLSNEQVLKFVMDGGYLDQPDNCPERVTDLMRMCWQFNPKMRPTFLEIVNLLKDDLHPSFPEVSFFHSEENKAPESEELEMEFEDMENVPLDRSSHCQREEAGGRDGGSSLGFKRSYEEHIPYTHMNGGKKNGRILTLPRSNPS

`CC[C@H](C)[C@H](NC(=O)CN)C(=O)N[C@H](C(=O)N[C@@H](CCC(=O)O)C(=O)N[C@@H](CCC(N)=O)C(=O)N[C@H]1CSSC[C@@H]2NC(=O)[C@H]([C@@H](C)CC)NC(=O)[C@H](CO)NC(=O)[C@H]([C@@H](C)O)NC(=O)[C@H](CSSC[C@H](NC(=O)[C@H](CC(C)C)NC(=O)[C@H](Cc3c[nH]cn3)NC(=O)[C@H](CCC(N)=O)NC(=O)[C@H](CC(N)=O)NC(=O)[C@@H](NC(=O)[C@H](Cc3ccccc3)NC(=O)CCCCCNC(=O)CCCCC(=O)N(CC(=O)N(CCO[C@H]3O[C@H](CO)[C@@H](O)[C@H](O)[C@@H]3O)CCO[C@H]3O[C@H](CO)[C@@H](O)[C@H](O)[C@@H]3O)CC(=O)N(CCO[C@H]3O[C@H](CO)[C@@H](O)[C@H](O)[C@@H]3O)CCO[C@H]3O[C@H](CO)[C@@H](O)[C@H](O)[C@@H]3O)C(C)C)C(=O)NCC(=O)N[C@@H](CO)C(=O)N[C@@H](Cc3c[nH]cn3)C(=O)N[C@@H](CC(C)C)C(=O)N[C@@H](C(C)C)C(=O)N[C@@H](CCC(=O)O)C(=O)N[C@@H](C)C(=O)N[C@@H](CC(C)C)C(=O)N[C@@H](Cc3ccc(O)cc3)C(=O)N[C@@H](CC(C)C)C(=O)N[C@@H](C(C)C)C(=O)N[C@H](C(=O)NCC(=O)N[C@@H](CCC(=O)O)C(=O)N[C@@H](CCCNC(=N)N)C(=O)NCC(=O)N[C@@H](Cc3ccccc3)C(=O)N[C@@H](Cc3ccccc3)C(=O)N[C@@H](Cc3ccc(O)cc3)C(=O)N[C@H](C(=O)N3CCC[C@H]3C(=O)N[C@@H](CCCCNC(=O)CCCCCNC(=O)CCCCC(=O)N(CC(=O)N(CCO[C@H]3O[C@H](CO)[C@@H](O)[C@H](O)[C@@H]3O)CCO[C@H]3O[C@H](CO)[C@@H](O)[C@H](O)[C@@H]3O)CC(=O)N(CCO[C@H]3O[C@H](CO)[C@@H](O)[C@H](O)[C@@H]3O)CCO[C@H]3O[C@H](CO)[C@@H](O)[C@H](O)[C@@H]3O)C(=O)N[C@H](C(=O)O)[C@@H](C)O)[C@@H](C)O)CSSC[C@@H](C(=O)N[C@@H](CC(N)=O)C(=O)O)NC(=O)[C@H](Cc3ccc(O)cc3)NC(=O)[C@H](CC(N)=O)NC(=O)[C@H](CCC(=O)O)NC(=O)[C@H](CC(C)C)NC(=O)[C@H](CCC(N)=O)NC(=O)[C@H](Cc3ccc(O)cc3)NC(=O)[C@H](CC(C)C)NC(=O)[C@H](CO)NC2=O)NC1=O)C(C)C` [IOC-32]: the 50% inhibitory concentration (IC50) in assay [1] was determined as 2.58 nM. This counts as single-digit nanomolar. In assay [2], `CC[C@H](C)[C@H](NC(=O)CN)C(=O)N[C@H](C(=O)N[C@@H](CCC(=O)O)C(=O)N[C@@H](CCC(N)=O)C(=O)N[C@H]1CSSC[C@@H]2NC(=O)[C@H]([C@@H](C)CC)NC(=O)[C@H](CO)NC(=O)[C@H]([C@@H](C)O)NC(=O)[C@H](CSSC[C@H](NC(=O)[C@H](CC(C)C)NC(=O)[C@H](Cc3c[nH]cn3)NC(=O)[C@H](CCC(N)=O)NC(=O)[C@H](CC(N)=O)NC(=O)[C@@H](NC(=O)[C@H](Cc3ccccc3)NC(=O)CCCCC(=O)N(CC(=O)N(CCO[C@H]3O[C@H](CO)[C@@H](O)[C@H](O)[C@@H]3O)CCO[C@H]3O[C@H](CO)[C@@H](O)[C@H](O)[C@@H]3O)CC(=O)N(CCO[C@H]3O[C@H](CO)[C@@H](O)[C@H](O)[C@@H]3O)CCO[C@H]3O[C@H](CO)[C@@H](O)[C@H](O)[C@@H]3O)C(C)C)C(=O)NCC(=O)N[C@@H](CO)C(=O)N[C@@H](Cc3c[nH]cn3)C(=O)N[C@@H](CC(C)C)C(=O)N[C@@H](C(C)C)C(=O)N[C@@H](CCC(=O)O)C(=O)N[C@@H](C)C(=O)N[C@@H](CC(C)C)C(=O)N[C@@H](Cc3ccc(O)cc3)C(=O)N[C@@H](CC(C)C)C(=O)N[C@@H](C(C)C)C(=O)N[C@H](C(=O)NCC(=O)N[C@@H](CCC(=O)O)C(=O)N[C@@H](CCCNC(=N)N)C(=O)NCC(=O)N[C@@H](Cc3ccccc3)C(=O)N[C@@H](Cc3ccccc3)C(=O)N[C@@H](Cc3ccc(O)cc3)C(=O)N[C@H](C(=O)N3CCC[C@H]3C(=O)N[C@@H](CCCCNC(=O)CCCCC(=O)N(CC(=O)N(CCO[C@H]3O[C@H](CO)[C@@H](O)[C@H](O)[C@@H]3O)CCO[C@H]3O[C@H](CO)[C@@H](O)[C@H](O)[C@@H]3O)CC(=O)N(CCO[C@H]3O[C@H](CO)[C@@H](O)[C@H](O)[C@@H]3O)CCO[C@H]3O[C@H](CO)[C@@H](O)[C@H](O)[C@@H]3O)C(=O)N[C@H](C(=O)O)[C@@H](C)O)[C@@H](C)O)CSSC[C@@H](C(=O)N[C@@H](CC(N)=O)C(=O)O)NC(=O)[C@H](Cc3ccc(O)cc3)NC(=O)[C@H](CC(N)=O)NC(=O)[C@H](CCC(=O)O)NC(=O)[C@H](CC(C)C)NC(=O)[C@H](CCC(N)=O)NC(=O)[C@H](Cc3ccc(O)cc3)NC(=O)[C@H](CC(C)C)NC(=O)[C@H](CO)NC2=O)NC1=O)C(C)C` [IOC-31] had an IC50 of 0.9 nM. That is a sub-nanomolar value.
